Assay results taken from patent publication US20040082635A1, “Fused cyclic compounds and medicinal use thereof” (priority 2001, published 2004).
Where a name gives a salt, the structure may show the parent alone.

Target: T1, HCV polymerase (Hepatitis C virus genotype 1b, UniProt P26663)
T1 construct: a region encoding NS5B (591 amino acids; J Virol 1991 Mar, 65(3), 1105-13) was amplified by PCR; 6 His (N); made in house; host or cells: Escherichia coli
Test: biochemical
Details: HCV polymerase inhibitory activity IC50

T1 sequence (P26663 2420-3010): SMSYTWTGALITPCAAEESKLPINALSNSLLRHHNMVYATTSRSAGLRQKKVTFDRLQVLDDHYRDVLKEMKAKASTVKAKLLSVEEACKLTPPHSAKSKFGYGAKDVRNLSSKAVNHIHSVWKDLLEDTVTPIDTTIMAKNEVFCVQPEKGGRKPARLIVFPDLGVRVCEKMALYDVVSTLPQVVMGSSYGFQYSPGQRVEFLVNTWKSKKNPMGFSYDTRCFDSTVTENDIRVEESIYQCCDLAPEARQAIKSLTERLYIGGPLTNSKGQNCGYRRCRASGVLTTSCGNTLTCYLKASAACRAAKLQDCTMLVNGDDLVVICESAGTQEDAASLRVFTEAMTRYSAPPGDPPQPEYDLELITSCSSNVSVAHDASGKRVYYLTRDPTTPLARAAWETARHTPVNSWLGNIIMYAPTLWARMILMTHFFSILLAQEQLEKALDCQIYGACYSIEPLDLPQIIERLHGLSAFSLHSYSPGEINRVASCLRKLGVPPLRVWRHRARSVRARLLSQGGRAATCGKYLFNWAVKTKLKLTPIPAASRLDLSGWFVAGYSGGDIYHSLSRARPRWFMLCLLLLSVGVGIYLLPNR

In the case of `CN(C)C(=O)c1ccc(-c2ccc(Cl)cc2)c(COc2ccc(-c3nc4cc(C(=O)O)ccc4n3C3CCCCC3)cc2)c1` [Example 265, 2-{4-[2-(4-chlorophenyl)-5-dimethylcarbamoylbenzyloxy]phenyl}-1-cyclohexylbenzimidazole-5-carboxylic acid hydrochloride], the IC50 is reported as 0.014 µM.

Same assay, conditions: read-out: HCV polymerase inhibitory activity IC50

In order of rising IC50:
1. C[S+]([O-])c1ccc(-c2ccc(Cl)cc2)c(COc2ccc(-c3nc4cc(C(=O)O)ccc4n3C3CCCCC3)cc2)c1 (stereo not drawn) [Example 298, 2-{4-[2-(4-chlorophenyl)-5-methylsulfinylbenzyloxy]phenyl}-1-cyclohexylbenzimidazole-5-carboxylic acid]  0.011 µM
2. O=C(O)c1ccc2c(c1)nc(-c1ccc(OCc3cc(C(=O)N4CCCC4)ccc3-c3ccc(Cl)cc3)cc1F)n2C1CCCCC1 [Example 287, 2-{4-[2-(4-chlorophenyl)-5-(1-pyrrolidinyl)carbonylbenzyloxy]-2-fluorophenyl}-1-cyclohexylbenzimidazole-5-carboxylic acid]  0.012 µM
3. O=C(O)c1ccc2c(c1)nc(-c1ccc(OCc3cc(N4CCCC4=O)c(F)cc3-c3ccc(Cl)cc3)cc1F)n2C1CCCCC1 [Example 454, 2-[4-{2-(4-chlorophenyl)-4-fluoro-5-(2-oxopyrrolidin-1-yl)benzyloxy}-2-fluorophenyl]-1-cyclohexylbenzimidazole-5-carboxylic acid hydrochloride]  0.013 µM
4. O=C(O)c1ccc2c(c1)nc(-c1ccc(OCc3cc(C(=O)N4CCCCC4)ccc3-c3ccc(Cl)cc3)cc1F)n2C1CCCCC1 [Example 286, 2-{4-[2-(4-chlorophenyl)-5-piperidinocarbonylbenzyloxy]-2-fluorophenyl}-1-cyclohexylbenzimidazole-5-carboxylic acid]  0.014 µM
5. Nc1nc(-c2ccc(-c3ccc(Cl)cc3)c(COc3ccc(-c4nc5cc(C(=O)O)ccc5n4C4CCCCC4)cc3)c2)cs1 [Example 358, 2-{4-[5-(2-aminothiazol-4-yl)-2-(4-chlorophenyl)benzyloxy]-phenyl}-1-cyclohexylbenzimidazole-5-carboxylic acid dihydrochloride]  0.017 µM
6. N#Cc1ccc(-c2ccc(Cl)cc2)c(COc2ccc(-c3nc4cc(C(=O)O)ccc4n3C3CCCCC3)cc2)c1 [Example 299, 2-{4-[2-(4-chlorophenyl)-5-cyanobenzyloxy]phenyl}-1-cyclohexyl-benzimidazole-5-carboxylic acid]  0.018 µM
7. O=C(O)c1ccc(-c2ccc(Cl)cc2COc2ccc(-c3nc4cc(C(=O)O)ccc4n3C3CCCCC3)cc2)cc1 [Example 184, 2-{4-[2-(4-carboxyphenyl)-5-chlorobenzyloxy]phenyl}-1-cyclohexylbenzimidazole-5-carboxylic acid]  0.018 µM
8. CC(C)(C)NC(=O)c1ccc(-c2ccc(Cl)cc2)c(COc2ccc(-c3nc4cc(C(=O)O)ccc4n3C3CCCCC3)c(F)c2)c1 [Example 379, 2-{4-[2-(4-chlorophenyl)-5-(tert-butylcarbamoyl)benzyloxy]-2-fluorophenyl}-1-cyclohexylbenzimidazole-5-carboxylic acid hydrochloride]  0.021 µM
9. O=C(O)c1ccc2c(c1)nc(-c1ccc(OCc3cc([N+](=O)[O-])ccc3-c3ccc(Cl)cc3)cc1)n2C1CCCCC1 [Example 182, 2-{4-[2-(4-chlorophenyl)-5-nitrobenzyloxy]phenyl}-1-cyclohexylbenzimidazole-5-carboxylic acid]  0.021 µM
10. CCOC(=O)c1ccc(-c2ccc(Cl)cc2)c(COc2ccc(-c3nc4cc(C(=O)O)ccc4n3C3CCCCC3)cc2)c1 [Example 229, 2-{4-[2-(4-chlorophenyl)-5-ethoxycarbonylbenzyloxy]phenyl}-1-cyclohexylbenzimidazole-5-carboxylic acid]  0.022 µM
11. CN(Cc1ccccc1)C(=O)c1ccc(-c2ccc(Cl)cc2)c(COc2ccc(-c3nc4cc(C(=O)O)ccc4n3C3CCCCC3)cc2)c1 [Example 319, 2-{4-[2-(4-chlorophenyl)-5-(N-benzyl-N-methylcarbamoyl)-benzyloxy]phenyl}-1-cyclohexylbenzimidazole-5-carboxylic acid hydrochloride]  0.03 µM
12. CN(C)C(=O)c1cc(COc2ccc(-c3nc4cc(C(=O)O)ccc4n3C3CCCCC3)c(F)c2)cc(-c2ccc(Cl)cc2)c1 [Example 372, 2-{4-[3-(4-chlorophenyl)-5-(dimethylcarbamoyl)benzyloxy]-2-fluorophenyl}-1-cyclohexylbenzimidazole-5-carboxylic acid hydrochloride]  0.033 µM
13. CCN(c1ccc(-c2ccc(Cl)cc2)c(COc2ccc(-c3nc4cc(C(=O)O)ccc4n3C3CCCCC3)c(F)c2)c1)S(=O)(=O)CC [Example 465, 2-[4-{2-(4-chlorophenyl)-5-[N-ethyl-N-(ethylsulfonyl)amino]-benzyloxy}-2-fluorophenyl]-1-cyclohexylbenzimidazole-5-carboxylic acid hydrochloride]  0.033 µM
14. O=C(O)c1ccc2c(c1)nc(-c1ccc(OC(c3ccc(F)cc3)c3ccc(F)cc3)cc1F)n2C1CCCCC1 [Example 148, 2-{4-[bis(4-fluorophenyl)methoxy]-2-fluorophenyl}-1-cyclohexylbenzimidazole-5-carboxylic acid]  0.038 µM
15. O=C(O)c1ccc2c(c1)nc(-c1ccc(OCc3sc(CO)nc3-c3ccc(F)cc3)cc1)n2C1CCCCC1 [Example 254, 1-cyclohexyl-2-{4-[{4-(4-fluorophenyl)-2-hydroxymethyl-5-thiazolyl}methoxy]phenyl}benzimidazole-5-carboxylic acid]  0.038 µM
16. O=C(O)c1ccc2c(c1)nc(-c1ccc(OCc3cc(Cl)ccc3-c3cccnc3)cc1)n2C1CCCCC1 [Example 170, 2-{4-[3-chloro-6-(3-pyridyl)benzyloxy]phenyl}-1-cyclohexylbenzimidazole-5-carboxylic acid]  0.048 µM
17. Cc1nc(C)c(COc2cccc(Oc3ccc(-c4nc5cc(C(=O)O)ccc5n4C4CCCCC4)cc3)c2)s1 [Example 221, 1-cyclohexyl-2-{4-[3-{(2,4-dimethyl-5-thiazolyl)methoxy}phenoxy]-phenyl}benzimidazole-5-carboxylic acid]  0.058 µM
18. O=C(O)c1ccc2c(c1)nc(-c1ccc(OCc3ccccc3-c3ccccc3)cc1)n2C1CCCCC1 [Example 88, 2-[4-(2-biphenylylmethoxy)phenyl]-1-cyclohexylbenzimidazole-5-carboxylic acid]  0.092 µM
19. CCCOc1cccc(Oc2ccc(-c3nc4cc(C(=O)O)ccc4n3C3CCCCC3)cc2)c1 [Example 111, 1-cyclohexyl-2-[4-(3-propoxyphenoxy)phenyl]benzimidazole-5-carboxylic acid]  0.14 µM
20. O=C(O)c1ccc2c(c1)nc(-c1ccc(Oc3cccc(C(F)(F)F)c3)cc1)n2C1CCCCC1 [Example 230, 1-cyclohexyl-2-[4-(3-trifluoromethylphenoxy)phenyl]-benzimidazole-5-carboxylic acid]  0.17 µM
21. O=C(O)c1ccc2c(c1)nc(-c1ccc(Oc3cc(OCc4ccncc4)ncn3)cc1)n2C1CCCCC1 [Example 239, 1-cyclohexyl-2-{4-[4-(4-pyridylmethoxy)-6-pyrimidinyloxy]phenyl}-benzimidazole-5-carboxylic acid]  0.17 µM
22. Cc1cc(OCc2ccccc2-c2ccc(C(F)(F)F)cc2)ccc1-c1nc2cc(C(=O)O)ccc2n1C1CCCCC1 [Example 144, 1-cyclohexyl-2-{2-methyl-4-[2-(4-trifluoromethylphenyl)-benzyloxy]phenyl}benzimidazole-5-carboxylic acid]  0.19 µM
23. O=C(O)c1ccc2c(c1)nc(-c1ccc(OC3CCN(Cc4ccc(Cl)cc4)CC3)cc1)n2C1CCCCC1 [Example 223, 2-{4-[1-(4-chlorobenzyl)-4-piperidyloxy]phenyl}-1-cyclohexylbenzimidazole-5-carboxylic acid]  0.21 µM
24. COc1ccccc1Oc1ccc(-c2nc3cc(C(=O)O)ccc3n2C2CCCCC2)cc1 [Example 108, 1-cyclohexyl-2-[4-(2-methoxyphenoxy)phenyl]benzimidazole-5-carboxylic acid]  0.21 µM
25. CC(C)(C)OC(=O)N1CCC(COc2cccc(Oc3ccc(-c4nc5cc(C(=O)O)ccc5n4C4CCCCC4)cc3)c2)CC1 [Example 156, 2-{4-[3-{(1-tert-butoxycarbonyl-4-piperidyl)methoxy}phenoxy]-phenyl}-1-cyclohexylbenzimidazole-5-carboxylic acid]  0.23 µM
26. CC(C)(C)c1ccc(COc2cccc(Oc3ccc(-c4nc5cc(C(=O)O)ccc5n4C4CCCCC4)cc3)c2)cc1 [Example 212, 2-{4-[3-(4-tert-butylbenzyloxy)phenoxy]phenyl}-1-cyclohexylbenzimidazole-5-carboxylic acid]  0.23 µM
27. COc1ccc(COc2ccc(-c3nc4cc(C(=O)O)ccc4n3C3CCCC3)cc2)cc1 [Example 48, 1-cyclopentyl-2-[4-(4-methoxybenzyloxy)phenyl]benzimidazole-5-carboxylic acid]  0.44 µM
28. O=C(O)c1ccc2c(c1)nc(-c1ccc(OCc3ccc(Cl)s3)cc1)n2C1CCCC1 [Example 46, 2-{4-[(2-chloro-5-thienyl)methoxy]phenyl}-1-cyclopentylbenzimidazole-5-carboxylic acid]  0.47 µM
29. O=C(O)c1ccc2c(c1)nc(-c1ccc(OC[C@@H]3CCCN3C(=O)c3ccccc3)cc1)n2C1CCCCC1 [Example 194, 2-{4-[{(2S)-1-benzoyl-2-pyrrolidinyl}methoxy]phenyl}-1-cyclohexylbenzimidazole-5-carboxylic acid]  0.52 µM
30. O=C(O)c1ccc2c(c1)nc(-c1cc(OCc3ccccc3)no1)n2C1CCCCC1 [Example 99, 2-(3-benzyloxy-5-isoxazolyl)-1-cyclohexylbenzimidazole-5-carboxylic acid]  0.53 µM
31. O=C(O)c1ccc2c(c1)nc(-c1ccc(OCc3ccc(C(F)(F)F)cc3)cc1)n2C1CCCC1 [Example 47, 1-cyclopentyl-2-[4-(4-trifluoromethylbenzyloxy)phenyl]benzimidazole-5-carboxylic acid]  0.54 µM
32. O=C(O)c1ccc2c(c1)nc(-c1ccc(N(Cc3ccccc3)Cc3ccccc3)cc1)n2C1CCCCC1 [Example 87, 1-cyclohexyl-2-[4-(dibenzylamino)phenyl]benzimidazole-5-carboxylic acid]  0.8 µM
